Consider 2 molecules from patent publication US20240350440A1, “EXTRACTION OF ABSCISIC ACID FROM STRAWBERRIES” (KING FAISAL UNIVERSITY, priority 2023, published 2024).

Holding throughout (type): in vivo
Experiment [1] relates to albino rat after inducing myocardial infarction disease. Briefly: Oxidative stress markers and antioxidant enzymes in adrenaline-induced myocardial infarction. The settings on record: MI induced by high dose of adrenaline. The procedure:
(§1) The extracted and purified ABA was tested on an albino rat after inducing myocardial infarction disease by using a high dose of adrenaline at Alexandria faculty of medicine and all tests of examination were performed (chemical, electrocardiograph Histological).

Experiment [2] has the same test system. The experiment can be described thus: Biological cardiac markers in adrenaline-induced myocardial infarction. The conditions noted are these: MI induced by high dose of adrenaline. The procedure: as §1
Experiment [3] has the same test system. Briefly: Electrocardiogram assessment in adrenaline-induced myocardial infarction. The conditions noted are these: MI induced by high dose of adrenaline. The procedure: as §1
The test system is the same in experiment [4]. The experiment can be described thus: Histopathological assessment of H&E-stained heart tissue. The arrangement: key: grade 1 (normal histological the appearance of the myocardium); grade 2 (focal necrosis of myocardium); grade 3 (focal necrosis of myocardial fiber with neutrophil infiltration and interstitial edema); grade 4 (extensive necrosis of myocardial fiber with hemorrhage, interstitial edema, marked neutrophil infiltration and severe myofibrillary degeneration). The settings on record: MI rat. How it is done: as §1
With reference to the Figures, the histopathological assessment of H&E-stained (hematoxylin and eosin stained) heart tissue was scored according to severity of myocardial changes: grade 1 (normal histological the appearance of the myocardium), grade 2 (focal necrosis of myocardium), grade 3 (focal necrosis of myocardial fiber with neutrophil infiltration and interstitial edema), and grade 4 (extensive necrosis of myocardial fiber with hemorrhage, interstitial edema, marked neutrophil infiltration and severe myofibrillary degeneration).

Marks after values point to notes of the source that are not given here.

With `CC1=CC(=O)CC(C)(C)C1(O)/C=C/C(C)=C\C(=O)O` (centres unmarked) [Extracted ABA, abscisic acid], in experiment [1], the Catalase is recorded as 97 ± 1.73^bc U/g protein, the GSH was 21.66 ± 0.39^a μmol/g protein, the MDA was 5.68 ± 0.27^bcd μmol/g protein and the NO is recorded as 47.78 ± 4.49^bc μM/g protein. In addition, in experiment [2], the CK-MB is 1.14 ± 0.02^bc U/L, the LDH is on record as 482.67 ± 4.63^bc U/L and the Troponin was 1.71 ± 0.02^b ng/ml. Moreover, in experiment [3], the “COP (mean ml/min)” value is 18.57 ± 1.04^b ml/min, the “HR (mean b/min)” value is 247.4 ± 9.69^cd b/min, the “RR (interval/sec)” value was 0.73 ± 0.034^b sec and the ST height was 42.98 ± 4.05^b mm. Besides, in experiment [3], the carotid flow mean is reported as 18.06 ± 1.15^b ml/min. Besides, the “histopathological score, severity of myocardial changes” value in experiment [4] was “grade 3”.
With `CC1=CC(=O)CC(C)(C)[C@@]1(O)/C=C/C(C)=C\C(=O)O` [Standard ABA, abscisic acid], in experiment [1], the Catalase is 112 ± 23.09^abc U/g protein, the GSH is recorded as 20.01 ± 2.27^a μmol/g protein, the MDA was 6.13 ± 1.34^bc μmol/g protein and the NO is 48.61 ± 5.61^bc μM/g protein. Moreover, in experiment [2], the CK-MB is given as 1.22 ± 0.03^b U/L, the LDH was 587.33 ± 30.12^b U/L and the Troponin is reported as 1.72 ± 0.05^b ng/ml. Also, in experiment [3], the “COP (mean ml/min)” value is listed as 17.52 ± 0.1^b ml/min, the “HR (mean b/min)” value is on record as 255.77 ± 1.23^bc b/min, the “RR (interval/sec)” value is 0.7 ± 0.003^c sec and the ST height is given as 39.33 ± 2.15^b mm. Further, in experiment [3], the carotid flow mean is on record as 17.4 ± 0.16^b ml/min. Also, the “histopathological score, severity of myocardial changes” value in experiment [4] is on record as “grade 3”.
